The text below walks through data of ChEMBL document CHEMBL1255189, “Structural basis for binding of cyclic 2-oxoglutarate analogues to factor-inhibiting hypoxia-inducible factor” (Bioorg Med Chem Lett, 2010).

Assay [1] is described as follows: Inhibition of FIH by HTRF assay. For orientation: TR-FRET usually uses a lanthanide donor and a delayed reading to cut background.
The target of a further assay is Prolyl hydroxylase EGLN2 (Homo sapiens, UniProt Q96KS0). Briefly: Inhibition of PHD1 by HTRF assay.
Prolyl hydroxylase EGLN2, sequence (Q96KS0 whole entry): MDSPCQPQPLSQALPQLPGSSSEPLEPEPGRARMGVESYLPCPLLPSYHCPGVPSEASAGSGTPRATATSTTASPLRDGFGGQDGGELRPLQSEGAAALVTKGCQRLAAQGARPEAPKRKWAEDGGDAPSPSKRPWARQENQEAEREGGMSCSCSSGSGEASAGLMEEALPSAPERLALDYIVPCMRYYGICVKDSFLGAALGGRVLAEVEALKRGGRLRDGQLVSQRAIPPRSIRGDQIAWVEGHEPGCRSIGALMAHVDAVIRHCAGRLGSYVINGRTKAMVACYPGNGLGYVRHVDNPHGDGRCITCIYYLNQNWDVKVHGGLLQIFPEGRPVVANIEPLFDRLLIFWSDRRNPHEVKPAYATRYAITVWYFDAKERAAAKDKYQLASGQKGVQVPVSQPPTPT
Assay [2] deals with Egl nine homolog 1 (Homo sapiens) (UniProt Q9GZT9). Briefly: Inhibition of PHD2 at 1 mM by HTRF assay.
Egl nine homolog 1 (Homo sapiens), sequence (Q9GZT9 2-426 limits assumed): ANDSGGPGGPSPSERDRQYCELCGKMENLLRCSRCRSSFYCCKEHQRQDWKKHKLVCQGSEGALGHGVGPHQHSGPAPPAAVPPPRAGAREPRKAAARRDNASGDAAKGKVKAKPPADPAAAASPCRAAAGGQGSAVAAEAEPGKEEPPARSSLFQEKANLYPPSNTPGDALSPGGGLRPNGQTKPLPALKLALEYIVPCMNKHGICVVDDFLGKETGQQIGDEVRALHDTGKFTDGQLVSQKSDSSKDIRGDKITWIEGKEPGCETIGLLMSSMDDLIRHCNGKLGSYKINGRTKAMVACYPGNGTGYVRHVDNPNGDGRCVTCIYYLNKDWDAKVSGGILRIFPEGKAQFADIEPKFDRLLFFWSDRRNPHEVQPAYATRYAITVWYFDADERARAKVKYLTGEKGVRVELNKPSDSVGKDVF

The source made the active and inactive calls. The rule behind the calls is not given here. Some results are limits rather than exact numbers.

One may read the IC50 as the concentration at which inhibition is half-maximal. Low values mean greater potency in that assay, high ones weaker potency in that assay. Regarding `O=C(O)c1ccnc(C(=O)O)c1`, the inhibition result in assay [1] is “Active”. Further, on Prolyl hydroxylase EGLN2, the IC50 worked out at 625 µM. In assay [2], the inhibition result was “inactive”.
For `O=C(O)C(S)c1cccc(O)c1` (stereo not drawn), the IC50 at Prolyl hydroxylase EGLN2 worked out at 500 µM. Moreover, in assay [2], the inhibition result was “inactive”.
Turning to `O=C(O)CNC(=O)c1ccccc1O` [SALICYLURIC ACID], on Prolyl hydroxylase EGLN2, the half-inhibitory concentration (IC50) was over 1000 µM.
For `O=C(O)CNC(=O)c1ccccn1`, the IC50 on Prolyl hydroxylase EGLN2 was over 1000 µM. Besides, the inhibition result in assay [2] was “inactive”.
For the compound `O=C(NO)c1cccc(O)c1`, in assay [2], the inhibition result is “inactive”.
On to `O=C(O)CNC(=O)c1ncccc1O`, for which, on Prolyl hydroxylase EGLN2, 91.1 µM corresponded to half-maximal inhibition (IC50). The inhibition entry in assay [2] was “inactive”.
The like results for `O=C(O)C(=O)c1cccc(O)c1` were, in that order, over 1000 µM and “inactive”.
